Patent US9049864B2, “Pyridazinone herbicidal compounds” (Syngenta Limited, priority 2012, dated 2015)

Experiments:
Test in all cases: Post-emergence herbicidal glasshouse test, percentage damage to the plant
Type in all cases: in vivo
[1] = tested on: Solanum nigrum (SOLNI)
Protocol: (§1) Seeds of a variety of test species are sown in standard soil in pots:—Solanum nigrum (SOLNI), Amaranthus retoflexus (AMARE), Setaria faberi (SETFA), Alopecurus myosuroides (ALOMY), Echinochloa crus-galli (ECHCG), Ipomoea hederacea (IPOHE). After 8 days cultivation (post-emergence) under controlled conditions in a glasshouse (at 24/16° C., day/night; 14 hours light; 65% humidity), the plants are sprayed with an aqueous spray solution derived from the formulation of the technical active ingredient in acetone/water (50:50) solution containing 0.5% Tween 20 (polyoxyethelyene sorbitan monolaurate, CAS RN 9005-64-5). Compounds are applied at 1000 g/ha. The test plants are then grown in a glasshouse under controlled conditions in a glasshouse (at 24/16° C., day/night; 14 hours light; 65% humidity) and watered twice daily. After 13 days, the test is evaluated for the percentage damage caused to the plant. The biological activities are shown in the following table on a five point scale (5=80-100%; 4=60-79%; 3=40-59%; 2=20-39%; 1=0-19%). A comparative experiment is conducted to compare the biological efficacy of a compound of the present invention with those of WO 2011/045271. The test is performed as outlined above using the following compounds. Three different application rates are employed (250 g/ha, 500 g/ha and 1000 g/ha).

[2] = tested on: Setaria faberi (SETFA)
Protocol: as §1

[3] = tested on: Echinochloa crus-galli (ECHCG)
Protocol: as §1

[4] = tested on: Alopecurus myosuroides (ALOMY)
Protocol: as §1

[5] = tested on: Ipomoea hederacea (IPOHE)
Protocol: as §1

[6] = tested on: Amaranthus retoflexus (AMARE)
Protocol: as §1

[7] = post-emergence, 1000 g/ha, evaluated after 13 days
[8] = comparative experiment, rate 250 g/ha
[9] = comparative experiment, rate 500 g/ha
[10] = comparative experiment, rate 1000 g/ha

Row | SMILES | POST Application SOLNI, percentage damage (five point scale) [1, 7] | POST Application SETFA, percentage damage (five point scale) [2, 7] | POST Application ECHCG, percentage damage (five point scale) [3, 7] | POST Application ALOMY, percentage damage (five point scale) [4, 7] | POST Application IPOHE, percentage damage (five point scale) [5, 7] | POST Application AMARE, percentage damage (five point scale) [6, 7] | further results
1 | CCCCC1=NN(C)C(=O)C(n2c(Cl)c(Cl)c3ccccc32)C1=O (stereo not drawn) [Compound 2.010] | 4 (4=60-79%) | 1 (1=0-19%) | 1 (1=0-19%) | 1 (1=0-19%) | 3 (3=40-59%) | 3 (3=40-59%) | 
2 | CC(=O)Oc1c(C)nn(C)c(=O)c1-n1nc(Cl)c2ccccc21 [Compound 3.006] | 5 (5=80-100%) | 1 (1=0-19%) | 4 (4=60-79%) | 2 (2=20-39%) | 5 (5=80-100%) | 4 (4=60-79%) | 
3 | CN1N=CC(=O)C(n2ccc3ccccc32)C1=O (stereo not drawn) [Compound 1.014] | 5 (5=80-100%) | 1 (1=0-19%) | 4 (4=60-79%) | 1 (1=0-19%) | 4 (4=60-79%) | 3 (3=40-59%) | 
4 | COC1=NN(C)C(=O)C(n2c(Cl)c(Cl)c3ccccc32)C1=O (stereo not drawn) [Compound 2.022] | 5 (5=80-100%) | 1 (1=0-19%) | 1 (1=0-19%) | 1 (1=0-19%) | 5 (5=80-100%) | 4 (4=60-79%) | 
5 | CC1=NN(C)C(=O)C(n2cc(Cl)c3ccccc32)C1=O (stereo not drawn) [Compound 1.027] | 5 (5=80-100%) | 1 (1=0-19%) | 3 (3=40-59%) | 1 (1=0-19%) | 4 (4=60-79%) | 4 (4=60-79%) | 
6 | CN1N=CC(=O)C(n2nc(Cl)c3ccccc32)C1=O (stereo not drawn) [Compound 1.001, 4-(3-chloroindazol-1-yl)-2-methyl-pyridazine-3,5-dione] | 5 (5=80-100%) | 2 (2=20-39%) | 4 (4=60-79%) | 1 (1=0-19%) | 5 (5=80-100%) | 5 (5=80-100%) | POST Application SOLNI, percentage damage (five point scale) [1, 8]: 5 (5=80-100%); POST Application SOLNI, percentage damage (five point scale) [1, 9]: 5 (5=80-100%); POST Application SOLNI, percentage damage (five point scale) [1, 10]: 5 (5=80-100%); POST Application SETFA, percentage damage (five point scale) [2, 8]: 1 (1=0-19%); POST Application SETFA, percentage damage (five point scale) [2, 9]: 1 (1=0-19%); POST Application SETFA, percentage damage (five point scale) [2, 10]: 3 (3=40-59%); POST Application ECHCG, percentage damage (five point scale) [3, 8]: 2 (2=20-39%); POST Application ECHCG, percentage damage (five point scale) [3, 9]: 3 (3=40-59%); POST Application ECHCG, percentage damage (five point scale) [3, 10]: 3 (3=40-59%); POST Application ALOMY, percentage damage (five point scale) [4, 8]: 2 (2=20-39%); POST Application ALOMY, percentage damage (five point scale) [4, 9]: 2 (2=20-39%); POST Application ALOMY, percentage damage (five point scale) [4, 10]: 2 (2=20-39%); POST Application IPOHE, percentage damage (five point scale) [5, 8]: 5 (5=80-100%); POST Application IPOHE, percentage damage (five point scale) [5, 9]: 5 (5=80-100%); POST Application IPOHE, percentage damage (five point scale) [5, 10]: 5 (5=80-100%); POST Application AMARE, percentage damage (five point scale) [6, 8]: 4 (4=60-79%); POST Application AMARE, percentage damage (five point scale) [6, 9]: 4 (4=60-79%); POST Application AMARE, percentage damage (five point scale) [6, 10]: 4 (4=60-79%)
7 | Cc1nn(C)c(=O)c(-n2c(Cl)c(Cl)c3ccccc32)c1OC(=O)SC(C)C [Compound 3.001, [5-(2,3-dichloroindol-1-yl)-1,3-dimethyl-6-oxo-pyridazin-4-yl]isopropylsulfanylformate] | 5 (5=80-100%) | 1 (1=0-19%) | 1 (1=0-19%) | 1 (1=0-19%) | 5 (5=80-100%) | 5 (5=80-100%) | 
8 | CN1N=CC(=O)C(n2cc(Cl)c3cc(Cl)ccc32)C1=O (stereo not drawn) [Compound 1.016] | 5 (5=80-100%) | 1 (1=0-19%) | 1 (1=0-19%) | 1 (1=0-19%) | 4 (4=60-79%) | 2 (2=20-39%) | 
9 | Cc1cccc2ccn(C3C(=O)C=NN(C)C3=O)c12 (stereo not drawn) [Compound 1.008] | 4 (4=60-79%) | 1 (1=0-19%) | 1 (1=0-19%) | 1 (1=0-19%) | 2 (2=20-39%) | 1 (1=0-19%) | 
10 | CN1N=C(OCC(F)F)C(=O)C(n2c(Cl)c(Cl)c3ccccc32)C1=O (stereo not drawn) [Compound 2.020] | 4 (4=60-79%) | 1 (1=0-19%) | 1 (1=0-19%) | 1 (1=0-19%) | 3 (3=40-59%) | 4 (4=60-79%) | 
11 | COCC1=NN(C)C(=O)C(n2c(Cl)c(Cl)c3ccccc32)C1=O (stereo not drawn) [Compound 2.008] | 5 (5=80-100%) | 1 (1=0-19%) | 1 (1=0-19%) | 1 (1=0-19%) | 5 (5=80-100%) | 3 (3=40-59%) | 
12 | Cc1cn(C2C(=O)C=NN(C)C2=O)c2ccccc12 (stereo not drawn) [Compound 1.007] | 5 (5=80-100%) | 1 (1=0-19%) | 1 (1=0-19%) | 1 (1=0-19%) | 1 (1=0-19%) | 2 (2=20-39%) | 
13 | CC1=NN(C)C(=O)C(n2c(Cl)c(Cl)c3ccc(Cl)cc32)C1=O (stereo not drawn) [Compound 1.020] | 5 (5=80-100%) | 1 (1=0-19%) | 4 (4=60-79%) | 1 (1=0-19%) | 5 (5=80-100%) | 5 (5=80-100%) | 
14 | CN1N=C(C(F)F)C(=O)C(n2c(Cl)c(Cl)c3ccccc32)C1=O (stereo not drawn) [Compound 2.002] | 5 (5=80-100%) | 1 (1=0-19%) | 1 (1=0-19%) | 1 (1=0-19%) | 5 (5=80-100%) | 5 (5=80-100%) | 
15 | Cc1nn(C)c(=O)c(-n2c(Cl)c(Cl)c3ccccc32)c1OC(=O)OCC(C)C [Compound 3.010] | 5 (5=80-100%) | 1 (1=0-19%) | 3 (3=40-59%) | 1 (1=0-19%) | 5 (5=80-100%) | 5 (5=80-100%) | 
16 | CC1=NN(C)C(=O)C(n2c(C)c(Cl)c3ccccc32)C1=O (stereo not drawn) [Compound 4.027] | 5 (5=80-100%) | 4 (4=60-79%) | 5 (5=80-100%) | 3 (3=40-59%) | 5 (5=80-100%) | 5 (5=80-100%) | 
17 | CN1N=CC(=O)C(n2c(Cl)c(Cl)c3ccccc32)C1=O (stereo not drawn) [Compound 1.013] | 5 (5=80-100%) | 2 (2=20-39%) | 1 (1=0-19%) | 1 (1=0-19%) | 5 (5=80-100%) | 5 (5=80-100%) | 
